Reference: ChEMBL document CHEMBL1201862, “PubChem BioAssay data set” (2004)
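In this assay, cells in 96-well plates receive the compound at five concentrations for 48 hours. Endpoints are linearly interpolated between the surrounding concentrations. Abbreviation: GI50, concentration required for 50% inhibition of growth.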 Calls of active or inactive are those of the source. Rule as the data show it: active = GI50 up to about 1.1 µM and inactive = higher.

Key:
Assay in all cases: growth of human tumour cells (NCI), 48 h
[1] = system: A549
[2] = system: COLO 205
[3] = system: EKVX
[4] = system: IGROV-1
[5] = system: K562
[6] = system: KM12
[7] = system: LOX IMVI
[8] = system: MOLT-4
[9] = system: NCI-H23
[10] = system: OVCAR-3
[11] = system: OVCAR-4
[12] = system: OVCAR-5
[13] = system: OVCAR-8
[14] = system: RPMI-8226
[15] = system: SF-539
[16] = system: SK-MEL-5
[17] = system: SW-620
[18] = system: U-251
[19] = system: UACC-257
[20] = system: UACC-62

Measured: GI50

CC(O)=C1C(=O)CCC1=O
inactive: [1] > 100 µM | [2] > 100 µM | [3] > 100 µM | [4] > 100 µM | [5] > 100 µM | [6] > 100 µM | [7] > 100 µM | [8] > 100 µM | [9] > 100 µM | [10] > 100 µM | [11] > 100 µM | [12] > 100 µM | [13] > 100 µM | [14] > 100 µM | [15] > 100 µM | [16] > 100 µM | [17] > 100 µM | [18] > 100 µM | [19] > 100 µM | [20] > 100 µM

Cc1cc(C)n(-c2nsc3ccccc23)n1
inactive: [1] > 100 µM | [2] > 100 µM | [3] 91.4 µM | [4] > 100 µM | [5] 89.1 µM | [6] > 100 µM | [7] > 100 µM | [8] > 100 µM | [9] > 100 µM | [10] > 100 µM | [11] > 100 µM | [12] > 100 µM | [13] > 100 µM | [14] > 100 µM | [15] > 100 µM | [16] > 100 µM | [17] > 100 µM | [18] > 100 µM | [19] > 100 µM | [20] > 100 µM

CCOC(=O)C(NC(=O)CC)(Nc1ccccc1F)C(F)(F)F (stereo not given)
inactive: [1] > 100 µM | [2] > 100 µM | [3] > 100 µM | [4] > 100 µM | [5] 86.9 µM | [6] > 100 µM | [7] > 100 µM | [8] > 100 µM | [9] > 100 µM | [10] > 100 µM | [11] > 100 µM | [12] 58.1 µM | [13] > 100 µM | [14] > 100 µM | [15] > 100 µM | [16] 68.2 µM | [17] > 100 µM | [18] > 100 µM | [19] > 100 µM | [20] 42.2 µM

O=C1N(Cc2ccccc2)C2CSCC2N1Cc1ccccc1 (stereo not given)
inactive: [1] 40 µM | [2] 16.8 µM | [3] 21.1 µM | [4] 24.8 µM | [5] 55.5 µM | [6] 23.8 µM | [7] 30.2 µM | [8] 37.5 µM | [9] 27.8 µM | [10] 10.4 µM | [11] 69.2 µM | [12] 15.9 µM | [13] 33.3 µM | [14] 23.5 µM | [15] 24.5 µM | [16] 15.4 µM | [17] 36.2 µM | [18] 35.3 µM | [19] 24.8 µM | [20] 27.4 µM

CCCCCCCCCCCCCCCCCCOCC(O)CO (stereo not given) [BATILOL]
inactive: [1] 4.32 µM | [2] > 25 µM | [3] > 14.1 µM | [4] 13.6 µM | [5] > 22.4 µM | [6] 21.6 µM | [7] > 21.9 µM | [8] 17.2 µM | [9] > 25 µM | [10] > 23.9 µM | [11] 21.9 µM | [12] > 25 µM | [13] > 25 µM | [14] 4.9 µM | [15] > 25 µM | [16] 2.07 µM | [17] > 17 µM | [18] > 25 µM | [19] > 23.9 µM | [20] 21.7 µM
